Measured values: patent US9902736B2, “1-oxo/acylation-14-acylated oridonin derivative, preparation method therefor and application thereof” (HANGZHOU BENSHENG PHARMACEUTICAL CO., LTD., priority 2012, dated 2018)
In brackets after ≈: the same amount, converted by molar mass. Like-named read-outs stand apart in the source and are kept apart here. One block for each compound: values may come before it.

Experiments:
K562/ADR = test: Leukemia cell growth inhibition, MTT, 72 h; assay type: cell-based; details: Homo sapiens
Outline: (§1)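 MTT read-out of viable cell concentration after 72 hours of exposure at 37° C under 5% CO2. Compounds were dosed at several concentrations one day after plating 6000 cells per well.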

Kasumi-1 = test: Leukemia cell growth inhibition, MTT, 72 h; assay type: cell-based; details: Homo sapiens
Outline: as §1

H9 = test: Leukemia cell growth inhibition, MTT, 72 h; assay type: cell-based, human; details: for IC50 / IC90: Homo sapiens, H9, 72 h, MTT
Outline: as §1

Jurkat = test: Leukemia cell growth inhibition, MTT, 72 h; assay type: cell-based, human; details: Homo sapiens, Jurkat; 72 h, MTT
Outline: as §1

NB4 = test: Leukemia cell growth inhibition, MTT, 72 h; assay type: cell-based, human; details: for IC50 / IC90: Homo sapiens, NB-4, 72 h, MTT
Outline: as §1

RPMI 8226 = test: Multiple myeloma cell growth inhibition, MTT, 72 h; assay type: cell-based; details: Homo sapiens
Outline: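 Growth inhibition by MTT after 72 h drug exposure (37 °C, 5% CO2) over a concentration range of oridonin derivatives. RPMI 8226 cells plated at 6000 per well and dosed the following day.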

CNE = test: Solid tumor cell growth inhibition, MTT, 72 h; assay type: cell-based, human; details: for IC50 / IC90: Homo sapiens, CNE, 72 h, MTT
Outline: (§2)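 Viable cell concentration served as the readout. Cells (6000 per well) grown in DMEM High Glucose containing 10% FBS received the derivatives at several concentrations following an initial day of culture at 37° C, 5% CO2.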

Hela = test: Solid tumor cell growth inhibition, MTT, 72 h; assay type: cell-based, human; details: for IC50 / IC90: Homo sapiens, HeLa, 72 h, MTT
Outline: as §2

Hep-2 = test: Solid tumor cell growth inhibition, MTT, 72 h; assay type: cell-based, human; details: for IC50 / IC90: Homo sapiens, HEp-2, 72 h, MTT; for anti-Hep-2 activity increased: in comparison with oridonin
Outline: as §2

MGC-803 = test: Solid tumor cell growth inhibition, MTT, 72 h; assay type: cell-based, human; details: for IC50 / IC90: Homo sapiens, MGC-803, 72 h, MTT; for anti-MGC-803 activity increased: in comparison with oridonin
Outline: as §2

A549 = test: Solid tumor cell growth inhibition, MTT, 72 h; assay type: cell-based; details: Homo sapiens
Outline: as §2

Becap-37 = test: Solid tumor cell growth inhibition, MTT, 72 h; assay type: cell-based; details: Homo sapiens
Outline: as §2

CaEs-17 = test: Solid tumor cell growth inhibition, MTT, 72 h; assay type: cell-based; details: Homo sapiens, CaEs17
Outline: as §2

Hep G2 = test: Solid tumor cell growth inhibition, MTT, 72 h; assay type: cell-based; details: Homo sapiens, HepG2
Outline: as §2

MG-63 = test: Solid tumor cell growth inhibition, MTT, 72 h; assay type: cell-based; details: Homo sapiens
Outline: as §2

PANC-1 = test: Solid tumor cell growth inhibition, MTT, 72 h; assay type: cell-based; details: Homo sapiens
Outline: as §2

PC-3 = test: Solid tumor cell growth inhibition, MTT, 72 h; assay type: cell-based; details: Homo sapiens
Outline: as §2

RKO = test: Solid tumor cell growth inhibition, MTT, 72 h; assay type: cell-based; details: Homo sapiens
Outline: as §2

SK-OV-3 = test: Solid tumor cell growth inhibition, MTT, 72 h; assay type: cell-based; details: Homo sapiens; for IC50: read-out: IC50 SK-OV-3; for IC90: read-out: IC90 SK-OV-3
Outline: as §2

U87-MG = test: Solid tumor cell growth inhibition, MTT, 72 h; assay type: cell-based; details: Homo sapiens, U-87 MG
Outline: as §2

Structure (SMILES): C=C1C(=O)[C@]23[C@H](OC(=O)c4ccc(C)cc4)[C@H]1CC[C@H]2[C@@]12CO[C@@]3(O)[C@@H](O)[C@@H]1C(C)(C)CCC2OC(C)=O (stereo partly shown) [BS-OR-090]
IC50 (K562/ADR): 0.36 µg/mL (≈ 0.686 µM) | IC90 (K562/ADR): 1.48 µg/mL (≈ 2.82 µM) | IC50 (Kasumi-1): 0.37 µg/mL (≈ 0.705 µM) | IC90 (Kasumi-1): 1.3 µg/mL (≈ 2.48 µM) | IC50 (H9): 0.06 µg/mL (≈ 0.114 µM) | IC90 (H9): 0.37 µg/mL (≈ 0.705 µM) | anti-H9 cell line activity increased (H9; as compared with oridonin): 22 fold | IC50 (Jurkat): 0.4 µg/mL (≈ 0.762 µM) | IC90 (Jurkat): 2.62 µg/mL (≈ 4.99 µM) | IC50 (NB4): 0.05 µg/mL (≈ 0.0953 µM) | IC90 (NB4): 0.94 µg/mL (≈ 1.79 µM) | anti-NB4 cell line activity increased (NB4; as compared with oridonin): 15 fold | IC50 (RPMI 8226): 0.2 µg/mL (≈ 0.381 µM) | IC90 (RPMI 8226): 1.61 µg/mL (≈ 3.07 µM) | IC50 (CNE): 0.98 µg/mL (≈ 1.87 µM) | IC90 (CNE): 4.59 µg/mL (≈ 8.75 µM) | anti-CNE activity increased (CNE; in comparison with oridonin): ~6 fold | IC50 (Hela): 0.96 µg/mL (≈ 1.83 µM) | IC90 (Hela): 3.67 µg/mL (≈ 7 µM) | anti-Hela activity increased (Hela; in comparison with oridonin): more than 5 fold | IC50 (Hep-2): 0.96 µg/mL (≈ 1.83 µM) | IC90 (Hep-2): 5.71 µg/mL (≈ 10.9 µM) | anti-Hep-2 activity increased (Hep-2): ~5 fold | IC50 (MGC-803): 0.52 µg/mL (≈ 0.991 µM) | IC90 (MGC-803): 6.3 µg/mL (≈ 12 µM) | anti-MGC-803 activity increased (MGC-803): ~10 fold | IC50 (A549): 1.82 µg/mL (≈ 3.47 µM) | IC90 (A549): 6.27 µg/mL (≈ 12 µM) | IC50 (Becap-37): 0.99 µg/mL (≈ 1.89 µM) | IC90 (Becap-37): 3.01 µg/mL (≈ 5.74 µM) | IC50 (CaEs-17): 0.9 µg/mL (≈ 1.72 µM) | IC90 (CaEs-17): 3.65 µg/mL (≈ 6.96 µM) | IC50 (Hep G2): 0.74 µg/mL (≈ 1.41 µM) | IC90 (Hep G2): 7.09 µg/mL (≈ 13.5 µM) | IC50 (MG-63): 0.36 µg/mL (≈ 0.686 µM) | IC90 (MG-63): 0.92 µg/mL (≈ 1.75 µM) | IC50 (PANC-1): 1.31 µg/mL (≈ 2.5 µM) | IC90 (PANC-1): 4.41 µg/mL (≈ 8.41 µM) | IC50 (PC-3): 1.35 µg/mL (≈ 2.57 µM) | IC90 (PC-3): 5.37 µg/mL (≈ 10.2 µM) | IC50 (RKO): 0.35 µg/mL (≈ 0.667 µM) | IC90 (RKO): 0.88 µg/mL (≈ 1.68 µM) | IC50 (SK-OV-3; SK-OV-3, 72 h): 1.35 µg/mL (≈ 2.57 µM) | IC90 (SK-OV-3; SK-OV-3, 72 h): 5.37 µg/mL (≈ 10.2 µM) | IC50 (U87-MG): 0.51 µg/mL (≈ 0.972 µM) | IC90 (U87-MG): 1.67 µg/mL (≈ 3.18 µM)

IC50 (K562/ADR): 0.45 µg/mL (≈ 0.832 µM) | IC90 (K562/ADR): 1.72 µg/mL (≈ 3.18 µM) | IC50 (Kasumi-1): 0.52 µg/mL (≈ 0.962 µM) | IC90 (Kasumi-1): 1.22 µg/mL (≈ 2.26 µM) | IC50 (H9): 0.14 µg/mL (≈ 0.259 µM) | IC90 (H9): 0.46 µg/mL (≈ 0.851 µM) | IC50 (Jurkat): 0.55 µg/mL (≈ 1.02 µM) | IC90 (Jurkat): 2.31 µg/mL (≈ 4.27 µM) | IC50 (NB4): 0.13 µg/mL (≈ 0.24 µM) | IC90 (NB4): 0.73 µg/mL (≈ 1.35 µM) | IC50 (RPMI 8226): 0.37 µg/mL (≈ 0.684 µM) | IC90 (RPMI 8226): 1.8 µg/mL (≈ 3.33 µM) | IC50 (CNE): 1.18 µg/mL (≈ 2.18 µM) | IC90 (CNE): 4.52 µg/mL (≈ 8.36 µM) | IC50 (Hela): 1.28 µg/mL (≈ 2.37 µM) | IC90 (Hela): 3.51 µg/mL (≈ 6.49 µM) | IC50 (Hep-2): 0.96 µg/mL (≈ 1.78 µM) | IC90 (Hep-2): 6.65 µg/mL (≈ 12.3 µM) | IC50 (MGC-803): 0.59 µg/mL (≈ 1.09 µM) | IC90 (MGC-803): 5.7 µg/mL (≈ 10.5 µM) | IC50 (A549): 2.38 µg/mL (≈ 4.4 µM) | IC90 (A549): 7.54 µg/mL (≈ 13.9 µM) | IC50 (Becap-37): 1.26 µg/mL (≈ 2.33 µM) | IC90 (Becap-37): 2.48 µg/mL (≈ 4.59 µM) | IC50 (CaEs-17): 0.99 µg/mL (≈ 1.83 µM) | IC90 (CaEs-17): 4.83 µg/mL (≈ 8.93 µM) | IC50 (Hep G2): 1.4 µg/mL (≈ 2.59 µM) | IC90 (Hep G2): 6.28 µg/mL (≈ 11.6 µM) | IC50 (MG-63): 0.49 µg/mL (≈ 0.906 µM) | IC90 (MG-63): 1.46 µg/mL (≈ 2.7 µM) | IC50 (PANC-1): 1.69 µg/mL (≈ 3.13 µM) | IC90 (PANC-1): 5.65 µg/mL (≈ 10.5 µM) | IC50 (PC-3): 1.75 µg/mL (≈ 3.24 µM) | IC90 (PC-3): 4.71 µg/mL (≈ 8.71 µM) | IC50 (RKO): 0.41 µg/mL (≈ 0.758 µM) | IC90 (RKO): 0.93 µg/mL (≈ 1.72 µM) | IC50 (SK-OV-3; SK-OV-3, 72 h, MTT): 1.75 µg/mL (≈ 3.24 µM) | IC90 (SK-OV-3; SK-OV-3, 72 h, MTT): 4.71 µg/mL (≈ 8.71 µM) | IC50 (U87-MG): 0.67 µg/mL (≈ 1.24 µM) | IC90 (U87-MG): 1.98 µg/mL (≈ 3.66 µM)
Structure (SMILES): C=C1C(=O)[C@]23[C@H](OC(=O)c4ccc(OC)cc4)[C@H]1CC[C@H]2[C@@]12CO[C@@]3(O)[C@@H](O)[C@@H]1C(C)(C)CCC2OC(C)=O (stereo partly shown) [BS-OR-091]
anti-Hep-2 activity increased (Hep-2): ~5 fold | anti-MGC-803 activity increased (MGC-803): ~10 fold
